Test results published in ChEMBL document CHEMBL1201862, “PubChem BioAssay data set” (2004).
The source made the active and inactive calls.

How the values were obtained:
Cytochrome P450 2C19 = Cytochrome P450 2C19 (Homo sapiens, UniProt P33261); assay: Cytochrome panel assay with activity outcomes. Panel member name: p450-cyp2c19 Compounds with AC50 equal or less than 10 uM are considered active; format: functional; conditions: read-out: AC50
Cytochrome P450 2D6 = Cytochrome P450 2D6 (Homo sapiens, UniProt P10635);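 further: CYP2D6 member of a cytochrome P450 panel assay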
Cytochrome P450 2C9 = Cytochrome P450 2C9 (Homo sapiens, UniProt P11712)
[1] = biological target: Photoreceptor-specific nuclear receptor (Homo sapiens, UniProt Q9Y5X4); format: functional, cell-based;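 further: CHO-S cells with Gal4-NCOR and VP16-NR2E3 two-hybrid luciferase reporter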
[2] = biological target: T1, Replicative DNA helicase DnaB (Mycobacterium tuberculosis, UniProt P9WMR3); assay: DnaB intein splicing inhibitors, dose response, biochemical, cell-free fluorescence (AID 449749); format: functional
T1 sequence (P9WMR3 whole entry): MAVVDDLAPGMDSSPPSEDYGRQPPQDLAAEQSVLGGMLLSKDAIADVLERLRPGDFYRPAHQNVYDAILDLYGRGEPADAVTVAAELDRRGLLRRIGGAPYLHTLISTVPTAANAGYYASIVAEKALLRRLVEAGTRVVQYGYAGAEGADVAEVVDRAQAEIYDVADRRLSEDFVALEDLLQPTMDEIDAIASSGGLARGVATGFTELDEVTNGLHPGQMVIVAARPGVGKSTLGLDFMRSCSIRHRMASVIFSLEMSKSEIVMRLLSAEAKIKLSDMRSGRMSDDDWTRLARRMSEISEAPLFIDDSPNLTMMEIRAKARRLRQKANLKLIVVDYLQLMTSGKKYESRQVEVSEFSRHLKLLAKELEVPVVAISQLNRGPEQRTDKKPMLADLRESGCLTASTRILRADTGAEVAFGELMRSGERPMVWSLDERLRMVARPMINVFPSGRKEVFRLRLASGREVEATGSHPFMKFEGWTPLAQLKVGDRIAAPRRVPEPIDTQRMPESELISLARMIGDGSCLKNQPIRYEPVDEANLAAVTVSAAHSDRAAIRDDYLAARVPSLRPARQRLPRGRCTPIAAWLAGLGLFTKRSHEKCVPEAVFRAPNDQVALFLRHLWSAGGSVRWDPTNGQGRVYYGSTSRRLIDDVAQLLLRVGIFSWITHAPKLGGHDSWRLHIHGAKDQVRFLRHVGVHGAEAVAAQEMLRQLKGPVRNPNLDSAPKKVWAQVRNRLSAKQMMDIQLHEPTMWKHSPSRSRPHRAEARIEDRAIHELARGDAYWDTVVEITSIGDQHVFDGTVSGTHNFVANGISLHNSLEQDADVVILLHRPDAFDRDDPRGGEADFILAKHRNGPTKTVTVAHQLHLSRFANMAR

[3] = Shn3 3'UTR reporter inhibitors, dose response, cell-based, Clone20 osteoblasts, firefly luciferase, cherry-picked (AID 624132); format: functional;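 further: firefly luciferase luminescence from reporter carrying the Shn3 3'UTR in osteoblasts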
INS1 = assay: beta cell apoptosis inhibitors, cytokine rescue, dose response, luminescence, retest (AID 449756); format: functional, cell-based; conditions: Rattus norvegicus;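 further: cell death triggered by IL-1 beta plus TNF-alpha plus IFN-gamma mixture; protective hits raise ATP signal compared with cytokine alone wells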
Paired box protein Pax-8 = Paired box protein Pax-8 (Homo sapiens, UniProt Q06710); assay: inhibitors of PAX8-driven TPO luciferase reporter, dose response, RMG-I cells, cherry-pick (AID 687027); format: functional, cell-based;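 further: luciferase reporter driven by Pax8 target thyroperoxidase promoter measured by SteadyGlo luminescence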
Protein RecA = biological target: T2, Protein RecA (Mycobacterium tuberculosis, UniProt P9WHJ3); assay: Fluorescence Cell-Free Homogeneous Dose Retest to Identify Inhibitors of RecA-Intein Splicing Activity. [Related pubchem assays (depositor defined):AID2097, AID2223, AID489010, AID492950]; format: functional
T2 sequence (P9WHJ3 whole entry): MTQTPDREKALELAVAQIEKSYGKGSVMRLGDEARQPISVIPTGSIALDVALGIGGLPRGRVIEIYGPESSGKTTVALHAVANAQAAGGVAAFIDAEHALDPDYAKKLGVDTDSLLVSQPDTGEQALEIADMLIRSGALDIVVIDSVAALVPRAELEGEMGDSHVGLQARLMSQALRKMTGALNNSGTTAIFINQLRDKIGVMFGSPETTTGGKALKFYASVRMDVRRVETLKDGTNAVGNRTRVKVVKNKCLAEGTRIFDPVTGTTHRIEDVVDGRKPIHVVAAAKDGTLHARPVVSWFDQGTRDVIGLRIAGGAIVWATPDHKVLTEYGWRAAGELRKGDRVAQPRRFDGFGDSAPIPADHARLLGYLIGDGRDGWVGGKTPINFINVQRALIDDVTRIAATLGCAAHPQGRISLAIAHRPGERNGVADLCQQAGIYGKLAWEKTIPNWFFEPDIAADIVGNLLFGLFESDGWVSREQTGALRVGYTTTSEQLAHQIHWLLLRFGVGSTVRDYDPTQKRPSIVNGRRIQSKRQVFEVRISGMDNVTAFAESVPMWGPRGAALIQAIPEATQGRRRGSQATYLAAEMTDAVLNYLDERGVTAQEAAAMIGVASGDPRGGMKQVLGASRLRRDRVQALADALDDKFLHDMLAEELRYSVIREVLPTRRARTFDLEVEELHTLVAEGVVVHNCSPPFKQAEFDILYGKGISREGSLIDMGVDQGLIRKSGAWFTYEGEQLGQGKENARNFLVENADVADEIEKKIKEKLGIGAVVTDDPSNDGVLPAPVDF

[4] = HepG2 cell cytotoxicity, dose response, cytotoxicity control for Shn3 inhibitor project, CellTiter-Glo, cherry-picked (AID 624134); format: functional, cell-based
[5] = control 3'UTR Renilla luciferase suppression, dose response, counter-screen for Shn3 inhibitor project, cell-based, Clone20-Shn3RL, cherry-picked (AID 624133); format: functional
[6] = biological target: T3, Nuclear receptor subfamily 0 group B member 1 (Homo sapiens, UniProt P51843); assay: Luminescence-based cell-based high throughput dose response assay for inhibitors of the orphan nuclear receptor subfamily 0, group B, member 1 (DAX1; NR0B1). [Related pubchem assays (depositor defined):AID504766, AID504790]; format: functional
T3 sequence (P51843 whole entry): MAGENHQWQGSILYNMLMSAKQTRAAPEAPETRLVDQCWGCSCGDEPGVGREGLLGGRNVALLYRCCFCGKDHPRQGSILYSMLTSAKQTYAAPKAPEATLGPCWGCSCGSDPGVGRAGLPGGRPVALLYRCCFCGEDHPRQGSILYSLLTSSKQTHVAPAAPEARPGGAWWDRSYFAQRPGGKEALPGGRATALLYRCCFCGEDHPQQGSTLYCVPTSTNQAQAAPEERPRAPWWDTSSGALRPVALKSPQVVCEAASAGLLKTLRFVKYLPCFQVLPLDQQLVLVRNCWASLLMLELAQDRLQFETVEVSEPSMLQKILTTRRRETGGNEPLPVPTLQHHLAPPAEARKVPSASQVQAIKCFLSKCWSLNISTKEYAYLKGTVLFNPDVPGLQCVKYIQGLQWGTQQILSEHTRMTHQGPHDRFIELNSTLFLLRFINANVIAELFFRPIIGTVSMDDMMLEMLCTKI

HEK293 = assay: cells; format: functional, cell-based; conditions: Homo sapiens
[7] = biological target: T4, DNA repair protein RAD52 homolog (Homo sapiens, UniProt P43351); format: functional, biochemical
T4 sequence (P43351 whole entry): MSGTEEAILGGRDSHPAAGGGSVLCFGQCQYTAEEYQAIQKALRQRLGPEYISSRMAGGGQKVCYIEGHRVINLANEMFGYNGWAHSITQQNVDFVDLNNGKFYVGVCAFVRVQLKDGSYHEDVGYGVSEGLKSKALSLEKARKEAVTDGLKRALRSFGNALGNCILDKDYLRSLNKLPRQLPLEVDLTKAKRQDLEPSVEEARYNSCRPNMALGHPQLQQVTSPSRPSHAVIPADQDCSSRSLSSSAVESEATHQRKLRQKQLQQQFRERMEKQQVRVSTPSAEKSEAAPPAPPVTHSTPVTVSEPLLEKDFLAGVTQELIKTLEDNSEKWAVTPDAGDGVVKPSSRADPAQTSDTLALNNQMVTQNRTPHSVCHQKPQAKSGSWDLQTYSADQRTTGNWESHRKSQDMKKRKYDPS

[8] = biological target: T5, DNA repair and recombination protein RAD54-like (Homo sapiens, UniProt Q92698); assay: inhibitors of human RAD54 branch migration, confirmation, biochemical, fluorescence, cherry-picked samples, dose series (AID 651657); format: functional
T5 sequence (Q92698 whole entry): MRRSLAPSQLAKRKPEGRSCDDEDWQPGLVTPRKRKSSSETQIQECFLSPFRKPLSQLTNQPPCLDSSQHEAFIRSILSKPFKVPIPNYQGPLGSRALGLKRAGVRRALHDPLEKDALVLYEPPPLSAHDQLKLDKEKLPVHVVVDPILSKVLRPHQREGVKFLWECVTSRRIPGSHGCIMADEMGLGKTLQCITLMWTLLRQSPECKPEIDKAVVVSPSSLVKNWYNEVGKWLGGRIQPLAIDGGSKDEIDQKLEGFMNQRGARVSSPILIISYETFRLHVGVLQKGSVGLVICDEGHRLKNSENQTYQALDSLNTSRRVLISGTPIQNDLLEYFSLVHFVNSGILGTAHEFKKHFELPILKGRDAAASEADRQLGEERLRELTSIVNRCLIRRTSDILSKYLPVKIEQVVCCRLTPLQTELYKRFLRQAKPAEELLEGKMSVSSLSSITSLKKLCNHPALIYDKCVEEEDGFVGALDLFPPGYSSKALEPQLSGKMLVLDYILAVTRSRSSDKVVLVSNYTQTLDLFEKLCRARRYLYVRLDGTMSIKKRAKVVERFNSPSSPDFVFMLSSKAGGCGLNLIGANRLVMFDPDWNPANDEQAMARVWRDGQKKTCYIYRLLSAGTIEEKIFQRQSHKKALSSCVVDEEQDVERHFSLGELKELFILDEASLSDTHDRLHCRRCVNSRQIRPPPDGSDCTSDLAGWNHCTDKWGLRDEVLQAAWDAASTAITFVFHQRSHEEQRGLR

[9] = cytotoxicity toward NIH3T3 fibroblasts, dose response, counter-screen, cell-based, ATP luminescence, mouse fibroblasts (AID 2010); format: functional;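 further: cells exposed to compound for about 90 hours before reading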
[10] = inhibitors of intracellular T. cruzi replication, confirmation, NIH3T3 host cells, beta-gal luminescence (AID 2044); format: functional, cell-based;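 further: intracellular parasites grown in NIH/3T3 mouse fibroblasts as host cells; luminescent beta-galactosidase reporter signal from transgenic T. cruzi replicating inside host cells; inhibitors lower the luminescence signal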
[11] = inhibitors of Vif binding to APOBEC3G peptide, primary screen, biochemical, TR-FRET, GST-Vif 1-94, biotin-A3G peptide, dose response retest (AID 1117319); format: functional;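 further: TR-FRET signal of purified GST-Vif binding a biotinylated A3G peptide; inhibitors lower the FRET signal by blocking Vif and A3G binding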
[12] = biological target: Heat shock protein HSP 90-alpha (Homo sapiens, UniProt P07900); format: functional, organism-based
Genome polyprotein = Genome polyprotein (dengue virus type 2, UniProt P29990); assay: Dengue-2 NS5 methyltransferase inhibitors, primary screen, biochemical, confirmation dose response (AID 588689); format: functional
Albumin = Albumin (Bos taurus, UniProt P02769); assay: Counterscreen for inhibitors of T-cell receptor (TCR)-CD3 interaction: Fluorescence-based biochemical high throughput dose response assay to identify inhibitors of T-cell receptor (TCR)-CD3 interaction using a TAMRA-labeled BSA probe.; format: functional
[13] = biological target: T6, Small ubiquitin-related modifier 1 (Homo sapiens, UniProt P63165); assay: inhibitors of SUMO1 partner interactions, dose response, biochemical, FRET (AID 624383); format: functional; conditions: read-out: IC50_Mean
[14] = biological target: T6, Small ubiquitin-related modifier 1; assay: inhibitors of SUMO1 peptide binding, dose response, biochemical, fluorescence polarization, uHTS hits (AID 624382); format: functional; conditions: read-out: IC50_Mean

Chain of Cytochrome P450 2C19 (P33261 whole entry): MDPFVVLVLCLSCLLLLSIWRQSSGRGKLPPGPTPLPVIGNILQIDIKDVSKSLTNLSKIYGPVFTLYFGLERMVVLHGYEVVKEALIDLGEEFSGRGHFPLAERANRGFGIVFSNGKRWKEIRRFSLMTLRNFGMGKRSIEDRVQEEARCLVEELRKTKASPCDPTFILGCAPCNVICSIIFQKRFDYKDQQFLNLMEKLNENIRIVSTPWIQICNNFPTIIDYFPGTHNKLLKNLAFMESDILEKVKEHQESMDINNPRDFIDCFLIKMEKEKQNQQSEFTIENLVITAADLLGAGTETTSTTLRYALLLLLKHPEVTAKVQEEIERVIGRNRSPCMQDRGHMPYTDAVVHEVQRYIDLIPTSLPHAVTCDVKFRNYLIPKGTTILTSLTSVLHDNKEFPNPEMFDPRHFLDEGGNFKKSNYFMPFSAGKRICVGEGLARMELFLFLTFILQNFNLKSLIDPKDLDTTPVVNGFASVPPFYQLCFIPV
T6 sequence (P63165 whole entry): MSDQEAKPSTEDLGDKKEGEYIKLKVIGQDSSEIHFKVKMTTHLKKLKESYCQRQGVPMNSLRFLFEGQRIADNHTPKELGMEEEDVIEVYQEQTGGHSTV
Chain of Genome polyprotein (P29990 2492-3391 limits assumed): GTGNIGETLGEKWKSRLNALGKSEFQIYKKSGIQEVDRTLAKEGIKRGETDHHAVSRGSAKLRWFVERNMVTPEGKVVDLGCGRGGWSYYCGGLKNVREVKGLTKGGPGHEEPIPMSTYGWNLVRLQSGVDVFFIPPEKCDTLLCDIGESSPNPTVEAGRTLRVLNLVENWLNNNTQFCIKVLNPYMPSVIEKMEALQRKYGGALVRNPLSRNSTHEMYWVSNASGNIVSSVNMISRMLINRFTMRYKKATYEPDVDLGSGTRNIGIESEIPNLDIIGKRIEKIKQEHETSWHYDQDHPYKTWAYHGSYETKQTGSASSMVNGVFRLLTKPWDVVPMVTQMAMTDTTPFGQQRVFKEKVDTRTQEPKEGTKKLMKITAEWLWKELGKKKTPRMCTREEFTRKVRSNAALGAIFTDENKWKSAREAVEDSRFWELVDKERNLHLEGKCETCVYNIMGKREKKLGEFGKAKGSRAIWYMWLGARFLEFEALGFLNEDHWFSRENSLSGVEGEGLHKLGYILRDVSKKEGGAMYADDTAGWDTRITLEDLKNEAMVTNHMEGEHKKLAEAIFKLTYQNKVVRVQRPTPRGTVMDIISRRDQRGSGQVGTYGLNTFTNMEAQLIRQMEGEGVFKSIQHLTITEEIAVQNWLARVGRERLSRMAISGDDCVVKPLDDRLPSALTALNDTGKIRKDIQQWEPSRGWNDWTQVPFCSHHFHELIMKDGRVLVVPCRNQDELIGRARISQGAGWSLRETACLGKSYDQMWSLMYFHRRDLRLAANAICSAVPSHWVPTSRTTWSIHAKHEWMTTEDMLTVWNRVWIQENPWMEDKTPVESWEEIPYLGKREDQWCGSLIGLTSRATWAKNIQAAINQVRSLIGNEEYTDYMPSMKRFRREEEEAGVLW
Chain of Cytochrome P450 2D6 (P10635 whole entry): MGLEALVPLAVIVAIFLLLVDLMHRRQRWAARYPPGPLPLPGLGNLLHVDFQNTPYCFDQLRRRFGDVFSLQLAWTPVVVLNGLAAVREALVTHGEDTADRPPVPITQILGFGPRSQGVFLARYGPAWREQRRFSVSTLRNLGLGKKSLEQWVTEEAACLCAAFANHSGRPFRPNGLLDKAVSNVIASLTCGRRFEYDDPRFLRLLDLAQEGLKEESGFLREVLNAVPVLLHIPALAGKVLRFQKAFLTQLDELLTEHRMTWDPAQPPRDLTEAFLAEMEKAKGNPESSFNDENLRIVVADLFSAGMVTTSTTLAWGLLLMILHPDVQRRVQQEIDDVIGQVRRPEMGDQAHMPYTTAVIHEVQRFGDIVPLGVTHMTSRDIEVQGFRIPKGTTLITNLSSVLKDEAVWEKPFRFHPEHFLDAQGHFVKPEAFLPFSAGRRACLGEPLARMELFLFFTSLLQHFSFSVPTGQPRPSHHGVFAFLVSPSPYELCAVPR
Chain of Photoreceptor-specific nuclear receptor (Q9Y5X4 whole entry, the tested form may be a part): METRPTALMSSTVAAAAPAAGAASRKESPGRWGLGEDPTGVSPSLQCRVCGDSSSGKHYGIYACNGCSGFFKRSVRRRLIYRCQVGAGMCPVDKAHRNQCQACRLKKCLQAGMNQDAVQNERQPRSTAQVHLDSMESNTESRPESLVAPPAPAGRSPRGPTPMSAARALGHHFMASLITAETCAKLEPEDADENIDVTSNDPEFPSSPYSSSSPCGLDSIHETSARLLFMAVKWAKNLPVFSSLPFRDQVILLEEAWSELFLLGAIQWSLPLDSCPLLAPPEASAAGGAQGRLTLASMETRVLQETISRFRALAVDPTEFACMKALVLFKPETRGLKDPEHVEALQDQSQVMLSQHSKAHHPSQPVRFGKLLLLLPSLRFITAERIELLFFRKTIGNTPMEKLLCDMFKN
Chain of Albumin (P02769 whole entry): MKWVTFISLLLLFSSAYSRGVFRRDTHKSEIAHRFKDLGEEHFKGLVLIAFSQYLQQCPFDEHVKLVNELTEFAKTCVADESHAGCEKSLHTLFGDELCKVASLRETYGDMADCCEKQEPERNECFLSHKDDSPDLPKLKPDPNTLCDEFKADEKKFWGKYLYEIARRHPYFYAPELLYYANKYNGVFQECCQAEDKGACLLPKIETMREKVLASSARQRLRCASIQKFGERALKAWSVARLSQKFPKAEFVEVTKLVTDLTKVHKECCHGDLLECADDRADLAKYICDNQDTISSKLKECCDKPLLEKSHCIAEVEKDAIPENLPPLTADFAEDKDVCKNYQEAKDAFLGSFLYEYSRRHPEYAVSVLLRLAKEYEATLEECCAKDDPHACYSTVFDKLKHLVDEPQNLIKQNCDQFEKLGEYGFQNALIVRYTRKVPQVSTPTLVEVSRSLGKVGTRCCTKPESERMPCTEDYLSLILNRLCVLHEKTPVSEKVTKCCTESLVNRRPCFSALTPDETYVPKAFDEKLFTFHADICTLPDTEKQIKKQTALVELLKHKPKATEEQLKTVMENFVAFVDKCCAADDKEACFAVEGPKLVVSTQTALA
Chain of Cytochrome P450 2C9 (P11712 whole entry, the tested form may be a part): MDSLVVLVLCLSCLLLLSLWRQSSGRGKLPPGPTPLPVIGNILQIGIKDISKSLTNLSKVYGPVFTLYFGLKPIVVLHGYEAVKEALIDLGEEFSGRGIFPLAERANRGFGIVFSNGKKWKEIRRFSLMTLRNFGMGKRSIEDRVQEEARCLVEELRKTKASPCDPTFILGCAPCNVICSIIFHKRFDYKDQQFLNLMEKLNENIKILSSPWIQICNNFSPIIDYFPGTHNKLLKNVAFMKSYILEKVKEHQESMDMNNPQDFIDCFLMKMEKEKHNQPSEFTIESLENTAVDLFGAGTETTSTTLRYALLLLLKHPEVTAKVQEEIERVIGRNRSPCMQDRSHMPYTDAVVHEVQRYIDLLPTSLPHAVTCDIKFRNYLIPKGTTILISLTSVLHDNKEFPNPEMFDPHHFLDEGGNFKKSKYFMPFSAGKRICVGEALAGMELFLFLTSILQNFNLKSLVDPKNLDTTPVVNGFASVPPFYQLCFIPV
Chain of Paired box protein Pax-8 (Q06710 whole entry): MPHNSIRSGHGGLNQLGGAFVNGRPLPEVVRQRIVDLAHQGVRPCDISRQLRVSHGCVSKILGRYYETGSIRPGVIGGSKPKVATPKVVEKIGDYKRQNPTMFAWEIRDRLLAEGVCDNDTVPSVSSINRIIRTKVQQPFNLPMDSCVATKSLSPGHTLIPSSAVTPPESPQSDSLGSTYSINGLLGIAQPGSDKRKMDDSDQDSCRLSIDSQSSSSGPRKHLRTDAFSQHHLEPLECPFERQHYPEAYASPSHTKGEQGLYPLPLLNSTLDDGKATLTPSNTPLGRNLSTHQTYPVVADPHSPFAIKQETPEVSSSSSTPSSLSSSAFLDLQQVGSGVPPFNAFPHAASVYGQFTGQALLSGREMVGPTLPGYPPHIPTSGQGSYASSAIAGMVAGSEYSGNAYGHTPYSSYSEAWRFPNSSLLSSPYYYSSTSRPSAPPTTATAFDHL

Fc1nc(N2CCCC2)c(F)c(Oc2ccccc2Oc2c(F)c(F)nc(N3CCCC3)c2F)c1F
AC50 (Cytochrome P450 2C19): 5.62 µM (inconclusive) | AC50 (Cytochrome P450 2D6): inconclusive | AC50 (Cytochrome P450 2C9): 1 µM (inconclusive)

CC(C)c1ccc(/C=C(\c2nc3ccccc3[nH]2)S(=O)(=O)c2ccccc2)cc1
IC50 [1]: 2.72 µM (active) | AC50 [2]: 2.09 µM (active) | AC50 [3]: 4.01 µM (active) | AC50 (INS1): 4.38 µM (active) | AC50 (Paired box protein Pax-8): 5.15 µM (active) | EC50 (Protein RecA): 2.01 µM (active) | AC50 [4]: 18 µM (active) | AC50 [5]: 10.5 µM (active)

CCOc1ccc(-c2nnc(-c3ccco3)o2)cc1OCC
IC50 [6]: > 67.5 µM (inactive) | IC50 (HEK293): > 67.5 µM (inactive)

Cc1cc(N2CCN(C)CC2)nc2ccc(NC(S)=NCCCN3CCN(C)CC3)cc12
AC50 [7]: 3.59 µM (active) | AC50 [8]: 24.6 µM (active)

Cc1ccc2nc3c(c(Nc4ccc(O)cc4)c2c1)CCC3
AC50 [7]: 20.5 µM (active) | EC50 [9]: 8.88 µM (active) | EC50 [10]: 1.06 µM (active) | AC50 [8]: 39 µM (active)

COc1ccc(NC(=O)C2CCCN2S(=O)(=O)c2cccc3cccnc23)c(OC)c1 (centres undefined)
IC50 [11]: > 100 µM (active) | AC50 [12]: 1.49 µM (active)

CCOC(=O)CSc1nnc(NC(=O)c2cccc(S(=O)(=O)N3CCCCCC3)c2)s1
AC50 (Cytochrome P450 2C19): 2 µM (inconclusive) | AC50 (Cytochrome P450 2D6): inconclusive

Cc1ccc(/C=C2\SC(=S)N(NS(=O)(=O)c3ccc(C)cc3)C2=O)cc1
IC50 (Genome polyprotein): 25.9 µM (active)

Nc1cccc(Oc2c(F)c(F)c(Oc3cccc(N)c3)c(F)c2F)c1
AC50 [12]: 7.55 µM (active)

CCn1c(C)nc2cc(C(=O)NNC(=S)NC(=O)c3ccccc3)ccc21
IC50 (Albumin): > 94.1 µM (inactive)

N=C(Cc1ccc(Cl)cc1Cl)NOC(=O)c1cccs1
AC50 [12]: 3.59 µM (active)

O=C1C(=NO)CCc2ccccc21
IC50 (Genome polyprotein): 88.6 µM (active)

Cc1ccc(OCC(=O)NC(=S)Nc2cccc(C)n2)cc1
IC50 [6]: > 67.5 µM (inactive) | IC50 (HEK293): > 67.5 µM (inactive)

Cc1cc(-c2cc(NC=O)c3ncc(-c4cccc(C(=O)NCCN(C)C)c4)n3c2)cc(C)c1O
AC50 [7]: 1.54 µM (active) | IC50 [13]: 20.2 µM (inactive) | IC50 [14]: > 66.6 µM (inactive) | AC50 [8]: 8.33 µM (active)
